Data: ChEMBL document CHEMBL1129136, “Synthesis and evaluation of amino acid ester prodrugs of penciclovir” (Bioorg Med Chem Lett, 1996)

Experiments:
[1] = Half life was measured […] at 37 degree Celsius temperature by HPLC assay using a c18 reversed-phase column.; type: ADME
[2] = Half life was measured at pH 8.0 and at 37 degree Celsius temperature; type: ADME
Vero = test: Compound was tested for its antiviral activity against HSV-1(KOS strain) in vero cells; type: functional, cell-based; settings: Chlorocebus sabaeus
[3] = Half life was measured at pH 1.0 and at 37 degree Celsius temperature; type: ADME
Mus musculus = test: Compound was tested to determine the total amount of penciclovir recovered in the urine over a 48-h period after a single oral dose of 0.2 mmol/kg.; type: functional
[4] = Half life was measured at pH 7.4 and at 37 degree Celsius temperature; type: ADME

half-life [1] [h] | half-life [2] [h] | half-life [3] [h] | half-life [4] [h] | SMILES | EC50 (Vero) [µM] | Dose (urinary recovery) (Mus musculus) [%]
122 | 14.1 | 33.3 | 18.4 | CCCC(=O)OCC(CCn1cnc2c(O)nc(N)nc21)COC(=O)[C@@H](N)C(C)C.Cl (some centres undefined) | 42 | 29
120 | 14.4 | 47.5 | 19.1 | CC(C)C(=O)OCC(CCn1cnc2c(O)nc(N)nc21)COC(=O)[C@@H](N)C(C)C.Cl (some centres undefined) | > 100 | 20
52.9 | 9.8 | > 168 | 11.4 | CCC(C)[C@H](N)C(=O)OCC(CCn1cnc2c(O)nc(N)nc21)COC(=O)[C@@H](N)C(C)CC.Cl.Cl (some centres undefined) | 42.3 | 9
30.9 | 6 | > 168 | 6.7 | CC(C)[C@H](N)C(=O)OCC(CCn1cnc2c(O)nc(N)nc21)COC(=O)[C@@H](N)C(C)C.Cl.Cl | 25.5 | 25
105 | 19.1 | 19.4 | 24.8 | CCC(C)[C@H](N)C(=O)OCC(CCn1cnc2c(O)nc(N)nc21)COC(C)=O.Cl (some centres undefined) | > 100 | 15
104 | 13.6 | 19.2 | 17.3 | CCC(=O)OCC(CCn1cnc2c(O)nc(N)nc21)COC(=O)[C@@H](N)C(C)C.Cl (some centres undefined) | > 100 | 25
108 | 13.2 | 19.4 | 13.2 | CC(=O)OCC(CCn1cnc2c(O)nc(N)nc21)COC(=O)[C@@H](N)C(C)C.Cl (some centres undefined) | > 100 | 34
83.5 | 19.4 | 46.5 | 24.9 | CCC(C)[C@H](N)C(=O)OCC(CCn1cnc2c(O)nc(N)nc21)COC(=O)C(C)C.Cl (some centres undefined) | > 100 | 13
93.7 | 19.9 | 34 | 27 | CCCC(=O)OCC(CCn1cnc2c(O)nc(N)nc21)COC(=O)[C@@H](N)C(C)CC.Cl (some centres undefined) | 24.2 | 19
83.5 | 19.9 | 19 | 25 | CCC(=O)OCC(CCn1cnc2c(O)nc(N)nc21)COC(=O)[C@@H](N)C(C)CC.Cl (some centres undefined) | > 100 | 20
 |  |  |  | CC(=O)OCC(CCn1cnc2cnc(N)nc21)COC(C)=O [FAMCICLOVIR] | > 100 | 33
 |  |  |  | Nc1nc(O)c2ncn(CCC(CO)CO)c2n1 [PENCICLOVIR] | 8.1 | 9
